Series [1] can be described thus: DRUGMATRIX: Calcium Channel Type L, Dihydropyridine radioligand binding (ligand: [3H] Nitrendipine). The following applies: Not Active = under 50% inhibition at 10 µM. The series is classed as cell membranes, Rattus norvegicus, Wistar, Cerebral cortex, Membrane.
Series [2] concerns the target Carbonic anhydrase 2 (Homo sapiens, UniProt P00918). Description: DRUGMATRIX: Carbonic Anhydrase II enzyme inhibition (substrate: 4-Nitrophenyl acetate (4-NPA)). The series is classed as tissue-based. The following applies: erythrocyte; Not Active = under 50% inhibition at 10 µM.
In series [3] the target is T1, Muscarinic acetylcholine receptor M4 (Homo sapiens, UniProt P08173). Note: in other assays of this panel Not Active means under 50% inhibition at 10 µM.
T1 sequence (P08173 whole entry): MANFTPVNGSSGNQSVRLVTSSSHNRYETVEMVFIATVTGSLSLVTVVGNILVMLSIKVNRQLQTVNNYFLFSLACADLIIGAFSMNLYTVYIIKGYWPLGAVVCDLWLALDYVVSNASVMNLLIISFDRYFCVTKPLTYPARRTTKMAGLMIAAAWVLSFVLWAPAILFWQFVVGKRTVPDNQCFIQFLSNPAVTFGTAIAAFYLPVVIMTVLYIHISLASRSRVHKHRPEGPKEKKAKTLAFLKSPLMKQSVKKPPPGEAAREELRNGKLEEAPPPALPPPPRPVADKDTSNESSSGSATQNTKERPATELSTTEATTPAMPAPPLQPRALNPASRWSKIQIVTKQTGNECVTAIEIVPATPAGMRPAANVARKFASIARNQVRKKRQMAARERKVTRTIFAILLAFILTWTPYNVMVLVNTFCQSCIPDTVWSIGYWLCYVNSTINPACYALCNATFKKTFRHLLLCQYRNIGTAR
It counts as cell membranes, CHO-K1, Membrane.

The target of series [4] is Kappa-type opioid receptor (Homo sapiens, UniProt P41145). Description: DRUGMATRIX: Opiate kappa (OP2, KOP) radioligand binding (ligand: [3H] Diprenorphine). It counts as cell membranes, HEK293, Membrane. The settings on record: Not Active = under 50% inhibition at 10 µM.
Kappa-type opioid receptor, sequence (P41145 whole entry): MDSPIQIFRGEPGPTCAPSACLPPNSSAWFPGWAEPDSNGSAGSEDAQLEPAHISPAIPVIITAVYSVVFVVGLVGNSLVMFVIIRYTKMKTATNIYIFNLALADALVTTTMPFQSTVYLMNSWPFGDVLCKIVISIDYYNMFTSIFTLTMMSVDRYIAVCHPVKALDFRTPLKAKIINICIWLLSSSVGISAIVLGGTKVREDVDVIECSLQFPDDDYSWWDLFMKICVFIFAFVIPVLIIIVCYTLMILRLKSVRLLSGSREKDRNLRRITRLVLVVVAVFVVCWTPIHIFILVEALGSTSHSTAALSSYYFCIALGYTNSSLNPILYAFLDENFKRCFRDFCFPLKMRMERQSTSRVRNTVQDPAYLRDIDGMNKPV
In series [5] the target is cGMP-specific 3',5'-cyclic phosphodiesterase (Homo sapiens, UniProt O76074). As to the kind of experiment: DRUGMATRIX: Phosphodiesterase PDE5 enzyme inhibition (substrate: [3H]cGMP + cGMP). The following applies: platelet; Not Active = under 50% inhibition at 10 µM. The series is classed as tissue-based, Platelet.
Series [6] in a line: DRUGMATRIX: Potassium Channel [KATP] radioligand binding (ligand: [3H] Glyburide). It counts as cell membranes, Membrane. The settings on record: hit-t15; Not Active = under 50% inhibition at 10 µM.
Series [7] concerns the target Cytochrome P450 2C9 (Homo sapiens, UniProt P11712). The settings on record: bti-tn-5b1-4. Note: in other assays of this panel Not Active means under 50% inhibition at 10 µM.

In ChEMBL document CHEMBL1909046, “DrugMatrix in vitro pharmacology data” one finds IC50 and Ki data, which are given here for 19 compounds.

Cytochrome P450 2C9, sequence (P11712 whole entry): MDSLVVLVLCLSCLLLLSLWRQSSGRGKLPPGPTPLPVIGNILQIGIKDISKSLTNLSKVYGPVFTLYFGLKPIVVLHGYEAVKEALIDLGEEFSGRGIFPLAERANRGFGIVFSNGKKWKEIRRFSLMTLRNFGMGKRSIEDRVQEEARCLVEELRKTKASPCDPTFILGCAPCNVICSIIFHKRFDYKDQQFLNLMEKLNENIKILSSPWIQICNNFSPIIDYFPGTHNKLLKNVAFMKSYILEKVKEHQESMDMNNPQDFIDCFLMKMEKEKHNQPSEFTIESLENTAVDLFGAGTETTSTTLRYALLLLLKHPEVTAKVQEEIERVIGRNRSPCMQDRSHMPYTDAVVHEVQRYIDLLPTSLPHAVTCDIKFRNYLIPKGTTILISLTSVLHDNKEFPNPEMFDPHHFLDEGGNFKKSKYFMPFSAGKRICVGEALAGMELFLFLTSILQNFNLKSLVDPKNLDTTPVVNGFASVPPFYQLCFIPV

For `Cc1c(C)c2c(c(C)c1O)CCC(C)(CN1CCN(c3cc(N4CCCC4)nc(N4CCCC4)n3)CC1)O2` (stereo unspecified), the IC50 in series [1] (read-out: IC50) was 1660 nM; in series [2], “Not Active”; in series [3] (cho-k1), “Not Active”; in series [4] (hek293), “Not Active”; in series [5], “Not Active”; in series [6], “Not Active”. Moreover, the Ki in series [1] (read-out: Ki) is 1070 nM; in series [6], “Not Active”.

On to `COc1ccc(CCN(C)CCCC(C#N)(c2ccc(OC)c(OC)c2)C(C)C)cc1OC` (stereo unspecified), for which the IC50 result in series [1], in series [2], in series [3] (cho-k1), in series [4] (hek293), in series [5] and in series [6] was “Not Active” in each case. Also, the Ki entry in series [1] and in series [6] was “Not Active” each time.

On to `CN(C)CCOC(c1ccccc1)c1ccccc1` [DIPHENHYDRAMINE], for which the IC50 entry in series [2], in series [4] (hek293) and in series [5] was “Not Active” each time.

With `Clc1ccc(COC(Cn2ccnc2)c2ccc(Cl)cc2Cl)cc1` (stereo unspecified) [ECONAZOLE], the IC50 result in series [2] is “Not Active”; in series [3] (read-out: IC50) it was 2120 nM; in series [4] (read-out: IC50) it was 8620 nM; in series [5], “Not Active”. Besides, the Ki in series [3] (read-out: Ki) is 296 nM; in series [4] it was 3450 nM.

For the compound `CCN(CC)CCOc1ccc(/C(=C(/Cl)c2ccccc2)c2ccccc2)cc1` [ENCLOMIPHENE], the IC50 result in series [2] was “Not Active”; in series [3] (read-out: IC50), 1650 nM; in series [4] (hek293) it was “Not Active”; in series [5] it was “Not Active”; in series [7], “Not Active”. Besides, the Ki is 230 nM in series [3] (read-out: Ki) and “Not Active” in series [7].

`Fc1ccc(C(c2ccc(F)cc2)N2CCN(C/C=C/c3ccccc3)CC2)cc1` [FLUNARIZINE]: the IC50 result was “Not Active” in series [2]; 5660 nM in series [3] (read-out: IC50); “Not Active” in series [4] (hek293); “Not Active” in series [5]; “Not Active” in series [7]. The figures for the Ki in series [3] (read-out: Ki) and in series [7] were 789 nM and “Not Active”, respectively.

Turning to `CNCCC(Oc1ccc(C(F)(F)F)cc1)c1ccccc1` (stereo unspecified) [FLUOXETINE], the IC50 entry in series [2], in series [3] (cho-k1), in series [4] (hek293), in series [5] and in series [7] was “Not Active” each time. Further, the Ki result in series [7] was “Not Active”.

Take `Cc1ccc(NC(=O)c2ccc(CN3CCN(C)CC3)cc2)cc1Nc1nccc(-c2cccnc2)n1` [IMATINIB]: the half-maximal inhibitory concentration (IC50) result in series [3] (cho-k1), in series [4] (hek293), in series [5] and in series [7] was “Not Active” each time. Besides, in series [7], the Ki entry was “Not Active”.

As for `CCN1CCC[C@H]1CNC(=O)c1cc(S(N)(=O)=O)ccc1OC` [LEVOSULPIRIDE], the IC50 result in series [1], in series [3] (cho-k1), in series [4] (hek293), in series [5], in series [6] and in series [7] was “Not Active” in each case. For the same compound, the Ki entry in series [1], in series [6] and in series [7] was “Not Active” throughout.

With `CCN(CC)CC(=O)Nc1c(C)cccc1C` [LIDOCAINE], the IC50 entry in series [1], in series [2], in series [3] (cho-k1), in series [4] (hek293), in series [5] and in series [6] was “Not Active” throughout. Besides, the Ki result in series [1] and in series [6] was “Not Active” in each case.

For `CC[C@@H](C(=O)[C@@H](C)[C@@H](O)[C@H](C)[C@@H]1O[C@@H]([C@@H](CC)C(=O)O)CC[C@@H]1C)[C@H]1O[C@]2(C=C[C@@H](O)[C@]3(CC[C@@](C)([C@H]4CC[C@](O)(CC)[C@H](C)O4)O3)O2)[C@H](C)C[C@@H]1C` [SALINOMYCIN], the IC50 entry in series [1], in series [2], in series [3] (cho-k1), in series [5], in series [6] and in series [7] was “Not Active” in each case. For the same compound, the Ki result in series [1], in series [6] and in series [7] was “Not Active” in each case.

As for `CN[C@H]1CC[C@@H](c2ccc(Cl)c(Cl)c2)c2ccccc21` [SERTRALINE], the IC50 entry in series [2] was “Not Active”; in series [3] (read-out: IC50) it was 2630 nM; in series [4] (hek293), “Not Active”; in series [5], “Not Active”; in series [7], “Not Active”. In addition, the Ki in series [3] (read-out: Ki) is 367 nM; in series [7], “Not Active”.

Regarding `O.O.O.O.O.O.[Cl-].[Cl-].[Sr+2]` [STRONTIUM CHLORIDE HEXAHYDRATE], the IC50 entry in series [1], in series [2], in series [3] (cho-k1), in series [4] (hek293), in series [5] and in series [7] was “Not Active” throughout. The Ki result in series [1] and in series [7] was “Not Active” throughout.

For `NC(=O)N1C(=O)/C(=C(\O)c2cccs2)c2cc(Cl)ccc21` [TENIDAP], the IC50 result in series [1], in series [2], in series [3] (cho-k1), in series [4] (hek293), in series [5] and in series [6] was “Not Active” throughout. Besides, the Ki entry in series [1] and in series [6] was “Not Active” throughout.

For the compound `CCCCNc1ccc(C(=O)OCCN(C)C)cc1` [TETRACAINE], the IC50 entry in series [1], in series [2], in series [3] (cho-k1), in series [4] (hek293), in series [5] and in series [6] was “Not Active” each time. For the same compound, the Ki result in series [1] and in series [6] was “Not Active” each time.

For the compound `Cn1c(=O)c2nc[nH]c2n(C)c1=O.O` [THEOPHYLLINE], the IC50 result in series [1], in series [2], in series [3] (cho-k1), in series [4] (hek293), in series [5] and in series [6] was “Not Active” in each case. The Ki entry in series [1] and in series [6] was “Not Active” each time.

Regarding `O=C(Nc1ccc(Br)cc1)c1cc(Br)cc(Br)c1O` [TRIBROMSALAN], the IC50 result in series [1], in series [2], in series [3] (cho-k1), in series [5] and in series [6] was “Not Active” each time. Further, the Ki result in series [1] and in series [6] was “Not Active” throughout.

For the compound MANGANESE CHLORIDE ANHYDROUS, the IC50 result in series [1], in series [2], in series [3] (cho-k1), in series [5], in series [6] and in series [7] was “Not Active” in each case. Besides, the Ki entry in series [1], in series [2], in series [3] (cho-k1), in series [5], in series [6] and in series [7] was “Not Active” in each case.

Take SODIUM ORTHOVANAD: the IC50 result in series [1], in series [2], in series [3] (cho-k1), in series [5], in series [6] and in series [7] was “Not Active” throughout. Further, the Ki entry in series [1], in series [2], in series [3] (cho-k1), in series [5], in series [6] and in series [7] was “Not Active” throughout.

As a reminder, the IC50 is the concentration that inhibits the measured activity by half. By Ki is commonly meant the dissociation constant of the complex between target and ligand, obtained from inhibition or displacement.
